The text below walks through data of publication PMC4556614 (PLoS ONE, 2015).

The target of data set [1] is T1, OCT2 (Homo sapiens, UniProt O15244). The data set is described as follows: in vitro. On the procedure: (§1) For the transport assays HEK cell lines stably transfected with human OCT2 (HEK-OCT2) or the vector only (HEK-VC) were used. The HEK-OCT2 cell line was established and characterized previously. HEK-OCT2 and HEK-VC cells were seeded in poly-D-lysine (Sigma Aldrich, Taufkirchen, Germany) coated 48-well-plates at a density of 1.2 x 10^5 cells/well. […] Uptake was stopped by washing the cells three times with ice-cold uptake buffer. Afterwards, cells were lysed with 5 mM Tris buffer (pH 7.3) containing 0.1% Triton X-100. The intracellular accumulation of radioactivity was determined by liquid scintillation counting (PerkinElmer, Rodgau-Jügesheim, Germany) and protein concentration of each lysate was measured with bicinchonic acid assay (BCA Protein Assay Kit, Thermo Fisher Scientific, Waltham, MA, USA). We performed two to eight experiments each on at least two separate days, i.e., n = 4–16.
Experimental half-maximal inhibitory concentrations (IC50 values) were measured as the substrate uptake in the presence of increasing concentrations of test drugs. These experiments were performed as described above (three experiments each on two separate days, i.e., n = 6). IC50 values were calculated with GraphPad Prism 5.0 (GraphPad Software, San Diego, CA, USA). IC50 was estimated by a sigmoidal inhibition model and was fit to the equation V = V 0 / (1 + (I / IC50 ) ^n ) by nonlinear regression. V is the net uptake in the presence of the inhibitor, V 0 is the net uptake in the absence of the inhibitor, I is the concentration of the inhibitor and n is the slope.

Data set [2] deals with T1, OCT2. The data set is described as follows: Inhibition of OCT2-mediated [3H]MPP+ uptake in HEK-OCT2 cells. On the procedure: as §1
Where [3] appears, read: test drug 20 µM, MPP+ 50 μM, 3 min, net uptake HEK-OCT2 minus HEK-VC.
The mark [4] stands for this setting: test drug 200 µM, MPP+ 50 μM, 3 min, net uptake HEK-OCT2 minus HEK-VC.

Like-named read-outs stand apart in the source and are kept apart here.

T1 sequence (O15244 whole entry): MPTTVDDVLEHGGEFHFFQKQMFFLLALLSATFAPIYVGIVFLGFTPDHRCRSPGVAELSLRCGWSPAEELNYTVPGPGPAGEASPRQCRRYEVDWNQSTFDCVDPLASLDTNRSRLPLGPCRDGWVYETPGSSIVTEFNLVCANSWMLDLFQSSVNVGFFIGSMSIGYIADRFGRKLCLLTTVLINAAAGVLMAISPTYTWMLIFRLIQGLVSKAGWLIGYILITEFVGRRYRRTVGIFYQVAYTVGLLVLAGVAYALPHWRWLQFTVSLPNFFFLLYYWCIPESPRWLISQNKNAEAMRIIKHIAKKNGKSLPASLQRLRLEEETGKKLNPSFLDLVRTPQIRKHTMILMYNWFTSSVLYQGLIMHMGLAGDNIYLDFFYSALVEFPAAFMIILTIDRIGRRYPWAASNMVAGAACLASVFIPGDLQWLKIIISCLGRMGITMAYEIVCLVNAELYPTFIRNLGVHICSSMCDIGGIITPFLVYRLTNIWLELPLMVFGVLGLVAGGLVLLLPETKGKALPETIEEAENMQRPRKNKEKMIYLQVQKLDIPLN

As to `Cl.Cl.OCCN1CCN(CCC=C2c3ccccc3Sc3ccc(C(F)(F)F)cc32)CC1` (mixture of isomers) [Flupentixol], in data set [1], the “% Inhibition of OCT2-dependent MF uptake at 20 µM (mean ± SEM)” value is 75.0 ± 7.9 and the “% Inhibition of OCT2-dependent MF uptake at 200 µM (mean ± SEM)” value was determined as 96.1 ± 2.1. Further, in data set [2] (setting [3]), the “% Inhibition of OCT2-dependent MPP+ uptake at 20 µM (mean ± SEM)” value worked out at 22.9 ± 7.5%. Besides, the “% Inhibition of OCT2-dependent MPP+ uptake at 200 µM (mean ± SEM)” value in data set [2] (setting [4]) is on record as 107.8 ± 5.0%.
`N[C@@H](Cc1ccc(O)c(O)c1)C(=O)O` [Levodopa]: in data set [1] (human, pH 7.3), the “% Inhibition of OCT2-dependent MF uptake at 20 µM (mean ± SEM)” value is given as -9.3 ± 6.8 and the “% Inhibition of OCT2-dependent MF uptake at 200 µM (mean ± SEM)” value is 67.3 ± 2.6. Besides, the “% Inhibition of OCT2-dependent MPP+ uptake at 20 µM (mean ± SEM)” value in data set [2] (setting [3]) is on record as -24.6 ± 0.5%. Also, in data set [2] (setting [4]), the “% Inhibition of OCT2-dependent MPP+ uptake at 200 µM (mean ± SEM)” value worked out at 11.8 ± 1.4%.
The matching figures for `CC12CC3CC(C)(C1)CC(N)(C3)C2` [Memantine]: 54.0 ± 2.1, 93.9 ± 0.6, 20.6 ± 8.6% and 54.0 ± 7.0%.
As to `[Li]` [Lithium], in data set [1], the “% Inhibition of OCT2-dependent MF uptake at 20 µM (mean ± SEM)” value is -15.2 ± 7.9 and the “% Inhibition of OCT2-dependent MF uptake at 200 µM (mean ± SEM)” value was -14.7 ± 6.8. The “% Inhibition of OCT2-dependent MPP+ uptake at 20 µM (mean ± SEM)” value in data set [2] (setting [3]) is recorded as -28.4 ± 7.5%. In data set [2] (setting [4]), the “% Inhibition of OCT2-dependent MPP+ uptake at 200 µM (mean ± SEM)” value was -36.7 ± 9.7%.
In the case of `CC(=O)NCCCS(=O)(=O)O` [Acamprosate], in data set [1] (human, pH 7.3), the “% Inhibition of OCT2-dependent MF uptake at 20 µM (mean ± SEM)” value amounted to 2.7 ± 4.8% and the “% Inhibition of OCT2-dependent MF uptake at 200 µM (mean ± SEM)” value amounted to 0.9 ± 5.8%. The “% Inhibition of OCT2-dependent MPP+ uptake at 20 µM (mean ± SEM)” value in data set [2] (setting [3]) was -8.1 ± 4.4%. For the same compound, the “% Inhibition of OCT2-dependent MPP+ uptake at 200 µM (mean ± SEM)” value in data set [2] (setting [4]) is given as -7.7 ± 5.2%.
For `CN(C)CC/C=C1/c2ccccc2Sc2ccc(Cl)cc21` [Chlorprothixene], in data set [1] (human, pH 7.3), the “% Inhibition of OCT2-dependent MF uptake at 20 µM (mean ± SEM)” value came out at 66.8 ± 7.9% and the “% Inhibition of OCT2-dependent MF uptake at 200 µM (mean ± SEM)” value worked out at 98.4 ± 0.9%. Besides, the “% Inhibition of OCT2-dependent MPP+ uptake at 20 µM (mean ± SEM)” value in data set [2] (setting [3]) stood at 29.9 ± 7.5%. In data set [2] (setting [4]), the “% Inhibition of OCT2-dependent MPP+ uptake at 200 µM (mean ± SEM)” value is 91.7 ± 2.2%.
With `CN1CCN(C2=Nc3cc(Cl)ccc3Nc3ccccc32)CC1` [Clozapine], in data set [1] (human, pH 7.3), the “% Inhibition of OCT2-dependent MF uptake at 20 µM (mean ± SEM)” value was 71.4 ± 1.6 and the “% Inhibition of OCT2-dependent MF uptake at 200 µM (mean ± SEM)” value is reported as 98.7 ± 0.7. Besides, the “% Inhibition of OCT2-dependent MPP+ uptake at 20 µM (mean ± SEM)” value in data set [2] (setting [3]) is on record as 43.4 ± 4.7%. Further, the “% Inhibition of OCT2-dependent MPP+ uptake at 200 µM (mean ± SEM)” value in data set [2] (setting [4]) is listed as 84.1 ± 2.5%.
The matching figures for `CN(Cc1cnc2nc(N)nc(N)c2n1)c1ccc(C(=O)N[C@@H](CCC(=O)O)C(=O)O)cc1` [Methotrexate]: -1.1 ± 11.4, -5.8 ± 13.0, -19.0 ± 7.2% and -9.5 ± 3.0%.
The matching figures for `CC[C@H](C)C(=O)O[C@H]1C[C@H](O)C=C2C=C[C@H](C)[C@H](CC[C@@H](O)C[C@@H](O)CC(=O)O)[C@H]21` [Pravastatin]: -26.3 ± 11.1, -11.1 ± 11.1, -30.2 ± 5.5% and -15.0 ± 5.2%.
With `Fc1ccc([C@@H]2CCNC[C@H]2COc2ccc3c(c2)OCO3)cc1` [Paroxetine], in data set [1] (human, pH 7.3), the “% Inhibition of OCT2-dependent MF uptake at 20 µM (mean ± SEM)” value amounted to 80.6 ± 3.1 and the “% Inhibition of OCT2-dependent MF uptake at 200 µM (mean ± SEM)” value was determined as 99.6 ± 1.9. In addition, in data set [2] (setting [3]), the “% Inhibition of OCT2-dependent MPP+ uptake at 20 µM (mean ± SEM)” value came out at 15.5 ± 3.8%. Moreover, the “% Inhibition of OCT2-dependent MPP+ uptake at 200 µM (mean ± SEM)” value in data set [2] (setting [4]) amounted to 87.2 ± 3.6%.
Turning to `CC(C)Cc1ccc(C(C)C(=O)O)cc1` (centres unmarked) [Ibuprofen], in data set [1] (human, pH 7.3), the “% Inhibition of OCT2-dependent MF uptake at 20 µM (mean ± SEM)” value was found to be 23.4 ± 6.7 and the “% Inhibition of OCT2-dependent MF uptake at 200 µM (mean ± SEM)” value came out at 29.6 ± 4.1. The “% Inhibition of OCT2-dependent MPP+ uptake at 20 µM (mean ± SEM)” value in data set [2] (setting [3]) is -5.8 ± 8.0%. In addition, in data set [2] (setting [4]), the “% Inhibition of OCT2-dependent MPP+ uptake at 200 µM (mean ± SEM)” value is -0.3 ± 7.5%.
`O=C1Nc2ccc(Cl)cc2C(c2ccccc2)=NC1O` (centres unmarked) [Oxazepam]: the “% Inhibition of OCT2-dependent MF uptake at 200 µM (mean ± SEM)” value in data set [1] (human, pH 7.3) is 97.5 ± 0.5. For the same compound, in data set [2] (human, pH 7.3), the “% Inhibition of OCT2-dependent MPP+ uptake at 20 µM (mean ± SEM)” value came out at 37.6 ± 4.7 and the “% Inhibition of OCT2-dependent MPP+ uptake at 200 µM (mean ± SEM)” value is listed as 44.6 ± 6.5.
